Experimental data reported in the NIST ThermoML archive (doi:10.1021/je3001377).
± gives the expanded uncertainty stated by the source.

Details: 298.15 K; 101.33 kPa; Liquid; Cone and plate viscometry

| viscosity | SMILES |
| --- | --- |
| 32.9 ± 1.1 mPa·s | CS(=O)(=O)[O-].Cn1cc[n+](C)c1 [1,3-dimethyl-1H-imidazolium methanesulfonate] |
| 70.5 ± 2.7 mPa·s | CCn1cc[n+](C)c1.CS(=O)(=O)[O-] [1-ethyl-3-methylimidazolium methanesulfonate] |
| 111 ± 14 mPa·s | CCCCn1cc[n+](C)c1.CS(=O)(=O)[O-] [1-butyl-3-methylimidazolium methanesulfonate] |
| 31.9 ± 2.4 mPa·s | CCCCn1cc[n+](CCCC)c1.CS(=O)(=O)[O-] [1,3-dibutyl-1H-imidazolium methanesulfonate] |
